Measurements as given in patent US20230265151A1, “GIP/GLP1 CO-AGONIST COMPOUNDS” (priority 2020, published 2023).
Like-named read-outs stand apart in the source and are kept apart here. *1 amine or outer side, *2 acyl side, *3 side chain or, on linkers, in order; H or OH if unused. Where a SMILES comes first, the peptide text is derived from it. Side-chain parts run from the residue outwards. [ ]: non-standard residue; d: D form. The star is where a group is joined. Decanoyl(10-(4-HOOC-PhO)) = O=C(O)c1ccc(OCCCCCCCCCC(=O)*)cc1; αMePhe(2-F) = C[C@](N)(Cc1ccccc1F)C(=O)O; γGlu = O=C(O)[C@H](CCC(=O)[*:2])N[*:1]; αMeY = C[C@](N)(Cc1ccc(O)cc1)C(=O)O; αMeL = CC(C)C[C@](C)(N)C(=O)O; Orn = NCCC[C@H](N)C(=O)O; AEEA = NCCOCCOCC(=O)O; Aib = CC(C)(N)C(=O)O

Columns and labels:
Type in all cases: cell-based
[1] = molecular target: T1, hGIPR (Homo sapiens, UniProt P48546); assay: Functional cAMP formation (HTRF) in HEK-293 clonal cells expressing hGIPR, 0.1% bovine casein, without or with 1.0% human serum albumin; details: for EC50: geometric mean
T1 construct: expressed in transfected cells
T1 sequence (P48546 22-466): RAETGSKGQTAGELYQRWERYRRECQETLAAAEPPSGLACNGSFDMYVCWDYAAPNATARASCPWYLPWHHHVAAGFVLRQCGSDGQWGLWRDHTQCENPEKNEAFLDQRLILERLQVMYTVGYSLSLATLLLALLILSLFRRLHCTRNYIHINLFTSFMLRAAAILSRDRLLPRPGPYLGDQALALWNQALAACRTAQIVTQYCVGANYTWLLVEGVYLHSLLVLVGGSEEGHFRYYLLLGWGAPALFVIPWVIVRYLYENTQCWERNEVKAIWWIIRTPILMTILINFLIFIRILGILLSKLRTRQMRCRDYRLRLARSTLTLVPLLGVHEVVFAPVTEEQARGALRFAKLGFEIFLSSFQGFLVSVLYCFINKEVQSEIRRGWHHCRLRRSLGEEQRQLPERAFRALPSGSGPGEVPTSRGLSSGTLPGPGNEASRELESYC
Method in brief: (§1)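 Cells were stimulated with peptide for 30 min at 37° C, then lysed in buffer carrying cAMP-d2 and anti-cAMP Eu3+-cryptate for a competitive HTRF read after at least 60 min at room temperature. The 665/620 nm ratio was converted to nM cAMP against a standard curve.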

[2] = molecular target: T2, hGCGR (Homo sapiens, UniProt P47871); assay: Functional cAMP formation (HTRF) in HEK-293 clonal cells expressing hGCGR, 0.1% bovine casein, without or with 1.0% human serum albumin
T2 construct: expressed in transfected cells
Method in brief: as §1

[3] = molecular target: hGLP-1R (Homo sapiens, UniProt P43220); assay: Functional cAMP formation (HTRF) in HEK-293 clonal cells expressing hGLP-1R, 0.1% bovine casein, without or with 1.0% human serum albumin; design: expressed in transfected cells; details: for EC50: geometric mean
Method in brief: as §1

[4] = hGIPR EC50, nM (SEM, n), cAMP, 37° C., 0.1% bovine casein (no human serum albumin)
[5] = hGCGR EC50, nM (SEM, n), cAMP, 37° C., 0.1% bovine casein (no human serum albumin), geometric mean
[6] = hGLP-1R EC50, nM (SEM, n), cAMP, 37° C., 0.1% bovine casein (no human serum albumin)
[7] = HEK293, 0.1% bovine casein and 1.0% human serum albumin, 37° C., percent of maximal response to GIP(1-42)NH2, read-out: hGIPR Emax, % ± SEM
[8] = 0.1% bovine casein and 1.0% human serum albumin, 37° C., geometric mean, read-out: hGCGR EC50, nM (SEM, n)
[9] = cAMP, incubated at 37° C., 0.1% bovine casein (no human serum albumin), geometric mean, read-out: hGCGR EC50, nM (SEM, n)
[10] = HEK293, percent of maximal response to GLP-1(7-36)NH2, 37° C., 0.1% bovine casein, arithmetic mean, read-out: hGLP-1R Emax, % ± SEM
[11] = cAMP, incubated at 37° C., 0.1% bovine casein (no human serum albumin), read-out: hGLP-1R EC50, nM (SEM, n)

Chain of hGLP-1R (P43220 24-463): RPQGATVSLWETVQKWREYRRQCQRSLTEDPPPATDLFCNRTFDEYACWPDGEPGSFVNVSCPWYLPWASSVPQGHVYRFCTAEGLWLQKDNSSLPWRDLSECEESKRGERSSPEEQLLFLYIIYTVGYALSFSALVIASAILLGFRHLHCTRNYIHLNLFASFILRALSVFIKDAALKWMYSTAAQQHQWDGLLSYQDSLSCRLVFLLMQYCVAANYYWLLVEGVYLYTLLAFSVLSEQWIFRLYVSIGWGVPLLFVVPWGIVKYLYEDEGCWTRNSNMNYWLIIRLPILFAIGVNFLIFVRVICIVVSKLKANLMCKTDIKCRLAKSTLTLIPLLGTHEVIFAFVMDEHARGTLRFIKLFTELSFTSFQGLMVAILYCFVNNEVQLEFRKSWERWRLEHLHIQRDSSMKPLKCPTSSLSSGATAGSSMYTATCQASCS
T2 sequence (P47871 26-477): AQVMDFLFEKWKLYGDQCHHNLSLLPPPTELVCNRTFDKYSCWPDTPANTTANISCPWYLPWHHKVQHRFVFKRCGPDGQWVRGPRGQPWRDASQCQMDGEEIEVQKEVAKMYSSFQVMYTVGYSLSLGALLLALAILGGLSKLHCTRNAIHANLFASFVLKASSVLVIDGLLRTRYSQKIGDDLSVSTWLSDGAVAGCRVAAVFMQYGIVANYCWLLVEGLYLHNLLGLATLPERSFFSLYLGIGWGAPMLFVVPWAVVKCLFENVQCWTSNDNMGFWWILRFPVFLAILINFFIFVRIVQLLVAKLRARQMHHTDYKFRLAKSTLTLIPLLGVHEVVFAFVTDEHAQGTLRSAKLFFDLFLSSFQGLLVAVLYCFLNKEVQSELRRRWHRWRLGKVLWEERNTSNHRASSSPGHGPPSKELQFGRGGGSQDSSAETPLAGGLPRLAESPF

| SMILES | Emax ([1]; HEK293, read-out: hGIPR Emax, % ± SEM, 0.1% bovine casein and 1.0% human serum albumin, 37° C., percent of maximal response to GIP(1-42)NH2) | EC50 ([1]; hGIPR EC50, nM (SEM, n), 0.1% bovine casein and 1.0% human serum albumin, 37° C.) | EC50 [1, 4] | EC50 ([2]; hGCGR EC50, nM (SEM, n), 0.1% bovine casein and 1.0% human serum albumin, 37° C., geometric mean) | EC50 [2, 5] | EC50 [3, 6] | Emax ([1]; HEK293, read-out: hGIPR Emax, % ± SEM, cAMP, 37° C., 0.1% bovine casein and 1.0% human serum albumin, percent of maximal response to GIP(1-42)NH2) | EC50 ([2]; hGCGR EC50, nM (SEM, n), cAMP, 37° C., 0.1% bovine casein and 1.0% human serum albumin, geometric mean (SEM, n)) | Emax ([3]; HEK293, read-out: hGLP-1R Emax, % ± SEM, cAMP, 37° C., 0.1% bovine casein and 1.0% human serum albumin, percent of maximal response to GLP-1(7-36)NH2) | Emax [1, 7] | Emax ([1]; HEK293, percent of maximal response to GIP(1-42)NH2, 37° C., 0.1% bovine casein, arithmetic mean, read-out: hGIPR Emax, % ± SEM) | EC50 ([1]; cAMP, incubated at 37° C., 0.1% bovine casein (no human serum albumin), read-out: hGIPR EC50, nM (SEM, n)) | EC50 [2, 8] | EC50 [2, 9] | Emax [3, 10] | EC50 [3, 11] | EC50 ([3]; 0.1% bovine casein and 1.0% human serum albumin, 37° C., read-out: hGLP-1R EC50, nM (SEM, n)) |
| --- | --- | --- | --- | --- | --- | --- | --- | --- | --- | --- | --- | --- | --- | --- | --- | --- | --- |
| CC[C@H](C)[C@H](NC(=O)[C@H](CCCN)NC(=O)[C@H](CC(=O)O)NC(=O)[C@H](CC(C)C)NC(=O)[C@](C)(CC(C)C)NC(=O)[C@@H](NC(=O)[C@](C)(CO)NC(=O)[C@@H](NC(=O)[C@H](CC(=O)O)NC(=O)[C@H](CO)NC(=O)[C@@H](NC(=O)[C@](C)(Cc1ccccc1F)NC(=O)[C@@H](NC(=O)CNC(=O)[C@H](CCC(=O)O)NC(=O)C(C)(C)NC(=O)[C@@H](N)Cc1ccc(O)cc1)[C@@H](C)O)[C@@H](C)O)C(C)C)[C@@H](C)CC)C(=O)N[C@@H](C)C(=O)N[C@@H](CCC(N)=O)C(=O)NC(C)(C)C(=O)N[C@@H](CCC(=O)O)C(=O)N[C@@H](Cc1ccccc1)C(=O)N[C@H](C(=O)N[C@@H](CCCCNC(=O)COCCOCCNC(=O)COCCOCCNC(=O)CC[C@H](NC(=O)CCCCCCCCCOc1ccc(C(=O)O)cc1)C(=O)O)C(=O)N[C@@](C)(Cc1ccc(O)cc1)C(=O)N[C@@H](CC(C)C)C(=O)N[C@H](C(=O)N[C@@H](CCCCNC(=O)COCCOCCNC(=O)COCCOCCNC(=O)CC[C@H](NC(=O)CCCCCCCCCOc1ccc(C(=O)O)cc1)C(=O)O)C(=O)NCC(=O)NCC(=O)N1CCC[C@H]1C(=O)N[C@@H](CO)C(=O)N[C@@H](CO)C(=O)NCC(=O)N[C@@H](C)C(=O)N1CCC[C@H]1C(=O)N1CCC[C@H]1C(=O)N1CCC[C@H]1C(=O)N[C@@H](CO)C(N)=O)[C@@H](C)CC)[C@@H](C)CC [Example 309] | 95.3% | 6.08 nM | 0.0212 nM | > 9950 nM | > 9950 nM | 0.527 nM |  |  |  |  |  |  |  |  |  |  |  |
| CC[C@H](C)[C@H](NC(=O)[C@H](CC(C)C)NC(=O)[C@](C)(Cc1ccc(O)cc1)NC(=O)[C@@H](CCC(=O)O)NC(=O)[C@@H](NC(=O)[C@H](Cc1ccccc1)NC(=O)[C@H](CCCCNC(=O)COCCOCCNC(=O)COCCOCCNC(=O)CC[C@H](NC(=O)CCCCCCCCCOc1ccc(C(=O)O)cc1)C(=O)O)NC(=O)C(C)(C)NC(=O)[C@H](CCC(N)=O)NC(=O)[C@H](C)NC(=O)[C@H](CCCCNC(=O)COCCOCCNC(=O)COCCOCCNC(=O)CC[C@H](NC(=O)CCCCCCCCCOc1ccc(C(=O)O)cc1)C(=O)O)NC(=O)[C@H](CCCN)NC(=O)[C@H](CC(=O)O)NC(=O)[C@H](CC(C)C)NC(=O)[C@](C)(CC(C)C)NC(=O)[C@@H](NC(=O)C(C)(C)NC(=O)[C@H](Cc1ccc(O)cc1)NC(=O)[C@H](CC(=O)O)NC(=O)[C@H](CO)NC(=O)[C@@H](NC(=O)[C@](C)(Cc1ccccc1F)NC(=O)[C@@H](NC(=O)CNC(=O)[C@H](CCC(=O)O)NC(=O)C(C)(C)NC(=O)[C@@H](N)Cc1ccc(O)cc1)[C@@H](C)O)[C@@H](C)O)[C@@H](C)CC)[C@@H](C)CC)C(=O)N[C@@H](CCCN)C(=O)NCC(=O)NCC(=O)N1CCC[C@H]1C(=O)N[C@@H](CO)C(=O)N[C@@H](CO)C(=O)NCC(=O)N[C@@H](C)C(=O)N1CCC[C@H]1C(=O)N1CCC[C@H]1C(=O)N1CCC[C@H]1C(=O)N[C@@H](CO)C(N)=O [Example 409] (H-Y[Aib]EGT[αMePhe(2-F)]TSDY[Aib]I[αMeL]LD[Orn]K([AEEA-AEEA-γGlu-Decanoyl(10-(4-HOOC-PhO))])AQ[Aib]K([AEEA-AEEA-γGlu-Decanoyl(10-(4-HOOC-PhO))])FI[dE][αMeY]LI[Orn]GGPSSGAPPPS-NH2; N-terminus assumed) |  |  | 0.00928 nM |  | > 9950 nM | 0.188 nM | 84% | > 9950 nM | 97.7% |  |  |  |  |  |  |  |  |
| CC[C@H](C)[C@H](NC(=O)[C@H](CC(C)C)NC(=O)[C@](C)(Cc1ccc(O)cc1)NC(=O)[C@@H](CCC(=O)O)NC(=O)[C@@H](NC(=O)[C@H](Cc1ccccc1)NC(=O)[C@H](CCCCNC(=O)COCCOCCNC(=O)COCCOCCNC(=O)CC[C@H](NC(=O)CCCCCCCCCCCCC(=O)O)C(=O)O)NC(=O)C(C)(C)NC(=O)[C@H](CCC(N)=O)NC(=O)[C@H](C)NC(=O)[C@H](CCCCNC(=O)COCCOCCNC(=O)COCCOCCNC(=O)CC[C@H](NC(=O)CCCCCCCCCCCCC(=O)O)C(=O)O)NC(=O)[C@H](CCCN)NC(=O)[C@H](CC(=O)O)NC(=O)[C@H](CC(C)C)NC(=O)[C@](C)(CC(C)C)NC(=O)[C@@H](NC(=O)C(C)(C)NC(=O)[C@H](Cc1ccc(O)cc1)NC(=O)[C@H](CC(=O)O)NC(=O)[C@H](CO)NC(=O)[C@@H](NC(=O)[C@](C)(Cc1ccccc1F)NC(=O)[C@@H](NC(=O)CNC(=O)[C@H](CCC(=O)O)NC(=O)C(C)(C)NC(=O)[C@@H](N)Cc1ccc(O)cc1)[C@@H](C)O)[C@@H](C)O)[C@@H](C)CC)[C@@H](C)CC)C(=O)N[C@@H](CCC(=O)O)C(=O)NCC(=O)NCC(=O)N1CCC[C@H]1C(=O)N[C@@H](CO)C(=O)N[C@@H](CO)C(=O)NCC(=O)N[C@@H](C)C(=O)N1CCC[C@H]1C(=O)N1CCC[C@H]1C(=O)N1CCC[C@H]1C(=O)N[C@@H](CO)C(N)=O [Example 230] |  |  |  |  |  |  |  |  |  | 85.8% | 105% | 0.0199 nM | > 9950 nM | > 9950 nM | 90.3% | 0.726 nM |  |
| CCCCCCCCCCCCCCCC(=O)N[C@@H](CCC(=O)NCCOCCOCC(=O)NCCOCCOCC(=O)NCCCC[C@H](NC(=O)[C@H](CCCN)NC(=O)[C@H](CC(=O)O)NC(=O)[C@H](CC(C)C)NC(=O)[C@](C)(CC(C)C)NC(=O)[C@@H](NC(=O)[C@H](CO)NC(=O)[C@H](Cc1ccncc1)NC(=O)[C@H](CC(=O)O)NC(=O)[C@H](CO)NC(=O)[C@@H](NC(=O)[C@](C)(Cc1ccccc1F)NC(=O)[C@@H](NC(=O)CNC(=O)[C@H](CCC(=O)O)NC(=O)C(C)(C)NC(=O)[C@@H](N)Cc1ccc(O)cc1)[C@@H](C)O)[C@@H](C)O)[C@@H](C)CC)C(=O)N[C@@H](C)C(=O)N[C@@H](CCC(N)=O)C(=O)NC(C)(C)C(=O)N[C@@H](CCC(=O)O)C(=O)N[C@@H](Cc1ccccc1)C(=O)N[C@H](C(=O)N[C@H](CCC(=O)O)C(=O)N[C@@H](CCCCNC(=O)COCCOCCNC(=O)COCCOCCNC(=O)CC[C@H](NC(=O)CCCCCCCCCCCCCCC)C(=O)O)C(=O)N[C@@H](CC(C)C)C(=O)N[C@H](C(=O)N[C@@H](CCC(=O)O)C(=O)NCC(=O)NCC(=O)N1CCC[C@H]1C(=O)N[C@@H](CO)C(=O)N[C@@H](CO)C(=O)NCC(=O)N[C@@H](C)C(=O)N1CCC[C@H]1C(=O)N1CCC[C@H]1C(=O)N1CCC[C@H]1C(=O)N[C@@H](CO)C(N)=O)[C@@H](C)CC)[C@@H](C)CC)C(=O)O [Example 32] |  |  |  |  |  |  |  |  |  | 98.2% |  |  | > 9950 nM | > 9950 nM | 119% | 0.0063 nM | 1.73 nM |
